Read-outs that look alike come from different tables or passages of the source. Marks after values point to notes of the source that are not given here.
Columns and labels:
[1] = ref PharmaPendium, cited from earlier work
[2] = system: hiPSC-derived neurons co-cultured with human primary astrocytes in 3D; test: Ca2+ transient oscillation assay (FDSS), 3D spheroids; type: cell-based; settings: for Area under the curve - 3D Mean / Peak Number—3D Mean / Peak amplitude - 3D Mean / Peak width - 3D Mean / Peak-to-peak interval - 3D Mean: 60 min
Method in brief: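 Fura-2 fluorescence was read twice for 20 min each: a baseline 10 min after 0.04% DMSO, and again 60 min after compound addition at nominal final concentration. The 3D co-cultures (1:1 hiPSC neurons from a donor and human astrocytes, 8000 each) matured 5 weeks in BrainPhys medium after a 1-week differentiation.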

[3] = system: hiPSC-derived neurons co-cultured with human primary astrocytes in 2D; test: Ca2+ transient oscillation assay (FDSS), 2D co-culture; type: cell-based; settings: for effect on peak number / Ca2+ neuronal oscillations, in words: 2D format; for activation at 0.11 µM / activation at 0.33 µM / activation at 1 µM / activation at 3 µM / activation at 3.7 µM / activation at 11.11 µM / activation at 33.33 µM / activation at 100 µM: Homo sapiens, 1 h, 60 min
Method in brief: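 Cultures were 10,000 CW50065 hiPSC excitatory neurons plus 2500 primary human astrocytes per well. Recordings used Cal-520 dye in HBSS/HEPES/glucose at 37 °C, with a 470/540 nm read at 2 Hz. Oscillations were stabilized with 0.04% DMSO, read for 20 min, then read again 60 min after compound addition (final DMSO 0.1%).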

[4] = Table 1, peak plasma concentration in men, free therapeutic Cmax
[5] = Table 2, highest plasma concentration in humans after the therapeutic dose
[6] = read-out: Area under the curve - 2D Mean
[7] = read-out: Peak amplitude - 2D Mean
[8] = read-out: Peak-to-peak interval - 2D Mean

## Clc1ccc2c(c1)C(N1CCNCC1)=Nc1ccccc1O2 [Amoxapine]
[1]; [4]
  Free Cmax: 0.04 to 0.6 µM
[1]; [5]
  Free Cmax: 0.04 to 0.6 µM
[2]; 0.11 µM
  Area under the curve - 3D Mean: 122.7 % change from baseline
  Peak Number—3D Mean: −10.1 % change from baseline
  Peak amplitude - 3D Mean: 92.4 % change from baseline
  Peak width - 3D Mean: 11.9 % change from baseline
  Peak-to-peak interval - 3D Mean: 14.8 % change from baseline
[2]; 0.33 µM
  Area under the curve - 3D Mean: 130.2 % change from baseline
  Peak Number—3D Mean: −2.2 % change from baseline
  Peak amplitude - 3D Mean: 101.9 % change from baseline
  Peak width - 3D Mean: 12.5 % change from baseline
  Peak-to-peak interval - 3D Mean: 7.1 % change from baseline
[2]; 1 µM
  Area under the curve - 3D Mean: 124.0 % change from baseline
  Peak Number—3D Mean: −10.8 % change from baseline
  Peak amplitude - 3D Mean: 102.7 % change from baseline
  Peak width - 3D Mean: 6.8 % change from baseline
  Peak-to-peak interval - 3D Mean: 4.4 % change from baseline
[2]; 3 µM
  Area under the curve - 3D Mean: 148.1 % change from baseline
  Peak Number—3D Mean: −7.5 % change from baseline
  Peak amplitude - 3D Mean: 105.1 % change from baseline
  Peak width - 3D Mean: 21.0 % change from baseline
  Peak-to-peak interval - 3D Mean: −6.6 % change from baseline
[2]; 3D-cultured
  effect on peak number of oscillations, in words: did not significantly change the peak number
[3]
  effect on peak number / Ca2+ neuronal oscillations, in words: significantly reduced peak number
[3]; [6]
  activation at 0.11 µM: 27.8%
  activation at 0.33 µM: 25.3%
  activation at 1 µM: 22.8%
  activation at 3 µM: -40.8%
[3]; read-out: Peak Number—2D Mean
  activation at 0.11 µM: -5.2%
  activation at 0.33 µM: 25.3%
  activation at 1 µM: 12.5%
  activation at 3 µM: -35.3%
[3]; [7]
  activation at 0.11 µM: 7.7%
  activation at 0.33 µM: 12.7%
  activation at 1 µM: -1.5%
  activation at 3 µM: -20.7%
[3]; read-out: Peak width - 2D Mean
  activation at 0.11 µM: 22%
  activation at 0.33 µM: 14.8%
  activation at 1 µM: 31.7%
  activation at 3 µM: -37.7%
[3]; [8]
  activation at 0.11 µM: 8.8%
  activation at 0.33 µM: -7.8%
  activation at 1 µM: -4.5%
  activation at 3 µM: 56.7%

## NS(=O)(=O)c1cc2c(cc1Cl)NC(C1CC3C=CC1C3)NS2(=O)=O (stereo not drawn) [Cyclothiazide]
[1]; [4]
  Free Cmax: 30 µM
[1]; [5]
  Free Cmax: 30 µM
[2]; 3.7 µM
  Area under the curve - 3D Mean: 135.8 % change from baseline
  Peak Number—3D Mean: 0.0 % change from baseline
  Peak amplitude - 3D Mean: 126.0 % change from baseline
  Peak width - 3D Mean: 0.7 % change from baseline
  Peak-to-peak interval - 3D Mean: 6.7 % change from baseline
[2]; 11.11 µM
  Area under the curve - 3D Mean: 187.3 % change from baseline
  Peak Number—3D Mean: 21.5 % change from baseline
  Peak amplitude - 3D Mean: 139.0 % change from baseline
  Peak width - 3D Mean: 23.6 % change from baseline
  Peak-to-peak interval - 3D Mean: −14.5 % change from baseline
[2]; 33.33 µM
  Area under the curve - 3D Mean: 245.1 % change from baseline
  Peak Number—3D Mean: 63.6 * % change from baseline
  Peak amplitude - 3D Mean: 113.7 % change from baseline
  Peak width - 3D Mean: 64.7 % change from baseline
  Peak-to-peak interval - 3D Mean: −30.0 % change from baseline
[2]; 100 µM
  Area under the curve - 3D Mean: 204.6 % change from baseline
  Peak Number—3D Mean: 102.9 ** % change from baseline
  Peak amplitude - 3D Mean: 83.6 % change from baseline
  Peak width - 3D Mean: 80.0 % change from baseline
  Peak-to-peak interval - 3D Mean: −49.3 % change from baseline
[3]
  effect on peak number / Ca2+ neuronal oscillations, in words: significantly increased peak number
[3]; [6]
  activation at 3.7 µM: 48%
  activation at 11.11 µM: 18.7%
  activation at 33.33 µM: -9.3%
  activation at 100 µM: -53.8%
[3]; read-out: Peak Number—2D Mean
  activation at 3.7 µM: 2.7%
  activation at 11.11 µM: 178%
  activation at 33.33 µM: -25.2%
  activation at 100 µM: -82%
[3]; [7]
  activation at 3.7 µM: 12.3%
  activation at 11.11 µM: -0.5%
  activation at 33.33 µM: -24%
  activation at 100 µM: -72.8%
[3]; read-out: Peak width - 2D Mean
  activation at 3.7 µM: 50.8%
  activation at 11.11 µM: 24.5%
  activation at 33.33 µM: 208%
  activation at 100 µM: -17.3%
[3]; [8]
  activation at 3.7 µM: 9.2%
  activation at 11.11 µM: -53.3%
  activation at 33.33 µM: 0.3%
  activation at 100 µM: -70.3%
